Molecules are shown by their SMILES.

Assay [1] has as its system T1, KATP channels of follicular cells (follicle-enclosed Xenopus oocytes).
T1 construct: gene kcnj11; native channel, endogenous to follicular cells; pore tetramer with one SUR per pore subunit; isoforms not determined
Put plainly: two-electrode voltage clamp, cromakalim-activated K+ current, follicle-enclosed oocytes. It is filed as cell-based, Xenopus laevis. The conditions noted are these: channel opener; control without MB; -20 mV; pH 7.5; slope 0.91.

Assay [2] has the same test system. The assay is described as above. The note with it: 100 μM cromakalim; 20 min MB preincubation; -20 mV; pH 7.5; noncompetitive, voltage-independent; slope 1.1. It is filed as cell-based, Xenopus laevis.
The test system is the same in assay [3]. Put plainly: [3H]glibenclamide saturation binding, microsomal membranes, filtration. The conditions noted are these: labelled compound; control without MB; 50 mM HEPES, pH 7.5, 22 °C, 60 min; sulfonylurea receptor site. Also on record: species or system Xenopus laevis.

For the molecule `CC1(C)Oc2ccc(C#N)cc2C(N2CCCC2=O)C1O` (stereo not drawn) [CKL, cromakalim], the concentration giving a half-maximal response (EC50) in assay [1] stood at 194 ± 21 µM.
Take `CN(C)c1ccc2nc3ccc(N(C)C)cc3[s+]c2c1` [MB, Methylene blue]: the IC50 in assay [2] turned out to be 22.4 µM.
Take `COc1ccc(Cl)cc1C(=O)NCCc1ccc(S(=O)(=O)NC(=O)NC2CCCCC2)cc1` [[^3H]glibenclamide]: the Kd in assay [3] stood at 0.00121 ± 0.00014 µM.

Source of the values: publication PMC9966726, “Methylene Blue Inhibits Cromakalim-Activated K^+ Currents in Follicle-Enclosed Oocytes” (Membranes, 2023).
